What was measured:
CLC-1 = CLC-1 (Homo sapiens (Human), UniProt P35523); experiment: two-electrode voltage clamp electrophysiology in Xenopus oocytes, CLC-1; assay type: cell-based; conditions: preliminary data, read-out: IC50 against CLC-1
5-HT1E = 5-HT1E (Homo sapiens (Human), UniProt P28566); experiment: PDSP primary binding assay; conditions: primary binding assay at 10 μM
Method: (§1) Two exemplary compounds, FA44 and FA26, were screened against a panel of CNS receptors, transporters, and ion channels to examine specificity for CLC-2 in the brain. A comprehensive primary binding assay screen was performed through the NIH Psychoactive Drug Screening Program (PDSP) at UNC-Chapel Hill. Secondary or functional assays were performed for compounds showing >50% activity in the primary assay.

5-HT3 = 5-HT3 (Homo sapiens (Human), UniProt P46098); experiment: PDSP primary binding assay; conditions: primary binding assay at 10 μM
Method: as §1

5-HT5A = 5-HT5A (Homo sapiens (Human), UniProt P47898); experiment: PDSP primary binding assay; conditions: primary binding assay at 10 μM
Method: as §1

AMPA = experiment: PDSP primary binding assay; conditions: primary binding assay at 10 μM
Method: as §1

Alpha2C = Alpha2C (Homo sapiens (Human), UniProt P18825); experiment: PDSP primary binding assay; conditions: primary binding assay at 10 μM
Method: as §1

Beta1 = Beta1 (Homo sapiens (Human), UniProt P08588); experiment: PDSP primary binding assay; conditions: primary binding assay at 10 μM
Method: as §1

D2 = D2 (Homo sapiens (Human), UniProt P14416); experiment: PDSP primary binding assay; conditions: primary binding assay at 10 μM
Method: as §1

DAT = DAT (Homo sapiens (Human), UniProt Q01959); experiment: PDSP primary binding assay; conditions: primary binding assay at 10 μM
Method: as §1

H1 = H1 (Homo sapiens (Human), UniProt P35367); experiment: PDSP primary binding assay; conditions: primary binding assay at 10 μM
Method: as §1

H4 = H4 (Homo sapiens (Human), UniProt Q9H3N8); experiment: PDSP primary binding assay; conditions: primary binding assay at 10 μM
Method: as §1

KA = experiment: PDSP primary binding assay; conditions: primary binding assay at 10 μM
Method: as §1

Sigma 1 = Sigma 1 (Homo sapiens (Human), UniProt Q99720); experiment: PDSP primary binding assay; conditions: primary binding assay at 10 μM
Method: as §1

5-HT1A = 5-HT1A (Homo sapiens (Human), UniProt P08908); experiment: PDSP primary binding assay and secondary assay; conditions: for % (10 μM): primary binding assay at 10 μM; for Ki: secondary or functional assay
Method: as §1

Alpha2A = Alpha2A (Homo sapiens (Human), UniProt P08913); experiment: PDSP primary binding assay and secondary assay; conditions: for % (10 μM): primary binding assay at 10 μM
Method: as §1

HERG = HERG (Homo sapiens (Human), UniProt Q12809); experiment: PDSP primary binding assay and secondary assay; conditions: for % (10 μM): primary binding assay at 10 μM
Method: as §1

M1 = M1 (Homo sapiens (Human), UniProt P11229); experiment: PDSP primary binding assay and secondary assay; conditions: for % (10 μM): primary binding assay at 10 μM
Method: as §1

M3 = M3 (Homo sapiens (Human), UniProt P20309); experiment: PDSP primary binding assay and secondary assay; conditions: for % (10 μM): primary binding assay at 10 μM; for Ki: secondary or functional assay
Method: as §1

M4 = M4 (Homo sapiens (Human), UniProt P08173); experiment: PDSP primary binding assay and secondary assay; conditions: for % (10 μM): primary binding assay at 10 μM
Method: as §1

M5 = M5 (Homo sapiens (Human), UniProt P08912); experiment: PDSP primary binding assay and secondary assay; conditions: for % (10 μM): primary binding assay at 10 μM; for Ki: secondary or functional assay
Method: as §1

mGluR5 = mGluR5 (Homo sapiens (Human), UniProt P41594); experiment: PDSP primary binding assay and secondary assay; conditions: for % (10 μM): primary binding assay at 10 μM; for Ki: secondary or functional assay
Method: as §1

mGluR2 = mGluR2 (Homo sapiens (Human), UniProt Q14416); experiment: PDSP functional assay; assay type: biochemical; conditions: only a functional assay was performed
Method: as §1

mGluR4 = mGluR4 (Homo sapiens (Human), UniProt Q14833); experiment: PDSP functional assay; assay type: biochemical; conditions: only a functional assay was performed
Method: as §1

mGluR6 = mGluR6 (Homo sapiens (Human), UniProt O15303); experiment: PDSP functional assay; assay type: biochemical; conditions: only a functional assay was performed
Method: as §1

mGluR8 = mGluR8 (Homo sapiens (Human), UniProt O00222); experiment: PDSP functional assay; assay type: biochemical; conditions: only a functional assay was performed
Method: as §1

CLC-2 = CLC-2 (Homo sapiens (Human), UniProt P51788); conditions: preliminary data, Xenopus oocytes
[1] = tested on: panel of CNS receptors, channels, and transporters; experiment: PDSP screen against panel of CNS receptors, transporters, and ion channels (overall); assay type: binding
Method: as §1

A2A = A2A (Homo sapiens (Human), UniProt P29274); experiment: PDSP primary binding assay; conditions: primary binding assay at 10 μM
Method: as §1

V1A = V1A (Homo sapiens (Human), UniProt P37288); experiment: PDSP primary binding assay; conditions: primary binding assay at 10 μM
Method: as §1

V1B = V1B (Homo sapiens (Human), UniProt P47901); experiment: PDSP primary binding assay; conditions: primary binding assay at 10 μM
Method: as §1

Chain of M1 (P11229 whole entry): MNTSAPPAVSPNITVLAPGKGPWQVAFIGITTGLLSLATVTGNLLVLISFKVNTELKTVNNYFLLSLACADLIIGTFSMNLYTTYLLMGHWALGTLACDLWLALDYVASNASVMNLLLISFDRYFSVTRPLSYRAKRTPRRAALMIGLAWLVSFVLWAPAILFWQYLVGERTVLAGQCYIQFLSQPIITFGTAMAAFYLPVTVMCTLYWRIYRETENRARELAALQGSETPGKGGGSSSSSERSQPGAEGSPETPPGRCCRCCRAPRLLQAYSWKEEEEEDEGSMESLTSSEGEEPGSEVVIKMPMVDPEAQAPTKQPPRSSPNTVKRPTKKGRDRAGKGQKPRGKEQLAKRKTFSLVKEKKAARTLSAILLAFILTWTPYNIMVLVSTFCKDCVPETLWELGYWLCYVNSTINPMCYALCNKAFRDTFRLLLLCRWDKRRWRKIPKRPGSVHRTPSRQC
Chain of Alpha2A (P08913 whole entry): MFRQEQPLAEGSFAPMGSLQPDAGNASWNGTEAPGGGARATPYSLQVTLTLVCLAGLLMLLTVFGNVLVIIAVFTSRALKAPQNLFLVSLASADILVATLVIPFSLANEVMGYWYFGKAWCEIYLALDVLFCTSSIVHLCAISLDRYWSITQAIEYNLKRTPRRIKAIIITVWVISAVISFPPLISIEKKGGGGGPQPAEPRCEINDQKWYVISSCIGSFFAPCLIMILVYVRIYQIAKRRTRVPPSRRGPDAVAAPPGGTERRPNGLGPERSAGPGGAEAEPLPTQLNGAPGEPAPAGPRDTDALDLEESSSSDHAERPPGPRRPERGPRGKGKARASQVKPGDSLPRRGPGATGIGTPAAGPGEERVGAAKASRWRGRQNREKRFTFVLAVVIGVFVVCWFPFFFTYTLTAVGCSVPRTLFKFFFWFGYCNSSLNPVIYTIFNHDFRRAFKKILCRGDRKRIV
Chain of M4 (P08173 whole entry): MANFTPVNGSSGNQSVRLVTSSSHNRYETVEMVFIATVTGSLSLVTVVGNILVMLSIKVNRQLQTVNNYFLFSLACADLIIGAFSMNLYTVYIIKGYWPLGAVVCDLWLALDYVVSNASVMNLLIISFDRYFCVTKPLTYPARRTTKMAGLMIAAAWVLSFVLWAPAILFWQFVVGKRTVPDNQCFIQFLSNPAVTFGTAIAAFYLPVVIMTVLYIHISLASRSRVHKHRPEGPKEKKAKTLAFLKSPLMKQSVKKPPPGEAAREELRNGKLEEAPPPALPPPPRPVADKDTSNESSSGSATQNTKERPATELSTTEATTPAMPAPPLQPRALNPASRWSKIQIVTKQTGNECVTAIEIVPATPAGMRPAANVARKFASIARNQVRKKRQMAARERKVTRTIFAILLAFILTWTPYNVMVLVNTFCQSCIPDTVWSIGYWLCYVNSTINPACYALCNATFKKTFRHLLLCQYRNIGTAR
Chain of M5 (P08912 whole entry): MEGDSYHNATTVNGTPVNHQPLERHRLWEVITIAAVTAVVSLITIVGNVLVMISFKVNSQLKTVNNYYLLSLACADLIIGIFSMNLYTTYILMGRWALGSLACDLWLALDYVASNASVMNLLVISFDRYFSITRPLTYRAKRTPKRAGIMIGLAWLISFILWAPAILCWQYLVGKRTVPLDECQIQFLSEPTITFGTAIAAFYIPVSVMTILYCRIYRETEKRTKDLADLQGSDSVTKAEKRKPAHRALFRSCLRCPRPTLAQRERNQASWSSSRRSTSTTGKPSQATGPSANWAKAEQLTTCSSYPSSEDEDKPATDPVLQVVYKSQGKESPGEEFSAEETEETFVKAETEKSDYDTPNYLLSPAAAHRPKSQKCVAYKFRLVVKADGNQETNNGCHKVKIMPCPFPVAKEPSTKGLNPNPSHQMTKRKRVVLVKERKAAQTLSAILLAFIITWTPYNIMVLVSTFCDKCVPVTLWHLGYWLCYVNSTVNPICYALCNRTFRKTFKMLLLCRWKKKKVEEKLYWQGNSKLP
Chain of M3 (P20309 whole entry): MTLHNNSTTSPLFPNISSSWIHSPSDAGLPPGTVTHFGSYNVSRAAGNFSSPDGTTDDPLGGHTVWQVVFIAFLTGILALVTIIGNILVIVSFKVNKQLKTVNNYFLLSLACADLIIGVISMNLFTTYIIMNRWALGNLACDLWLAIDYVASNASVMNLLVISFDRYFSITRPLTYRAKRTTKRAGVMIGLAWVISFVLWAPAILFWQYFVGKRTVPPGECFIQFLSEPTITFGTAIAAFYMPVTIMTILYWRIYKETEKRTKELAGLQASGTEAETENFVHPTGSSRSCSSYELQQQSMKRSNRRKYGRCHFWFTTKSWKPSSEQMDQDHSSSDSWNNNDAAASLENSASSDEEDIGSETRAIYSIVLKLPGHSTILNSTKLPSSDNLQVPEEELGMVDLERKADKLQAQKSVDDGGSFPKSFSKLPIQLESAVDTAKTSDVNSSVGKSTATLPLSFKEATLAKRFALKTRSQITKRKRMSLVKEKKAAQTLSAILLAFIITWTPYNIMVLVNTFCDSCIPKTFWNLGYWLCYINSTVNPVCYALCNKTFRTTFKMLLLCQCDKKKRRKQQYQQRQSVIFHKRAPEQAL
Chain of HERG (Q12809 whole entry): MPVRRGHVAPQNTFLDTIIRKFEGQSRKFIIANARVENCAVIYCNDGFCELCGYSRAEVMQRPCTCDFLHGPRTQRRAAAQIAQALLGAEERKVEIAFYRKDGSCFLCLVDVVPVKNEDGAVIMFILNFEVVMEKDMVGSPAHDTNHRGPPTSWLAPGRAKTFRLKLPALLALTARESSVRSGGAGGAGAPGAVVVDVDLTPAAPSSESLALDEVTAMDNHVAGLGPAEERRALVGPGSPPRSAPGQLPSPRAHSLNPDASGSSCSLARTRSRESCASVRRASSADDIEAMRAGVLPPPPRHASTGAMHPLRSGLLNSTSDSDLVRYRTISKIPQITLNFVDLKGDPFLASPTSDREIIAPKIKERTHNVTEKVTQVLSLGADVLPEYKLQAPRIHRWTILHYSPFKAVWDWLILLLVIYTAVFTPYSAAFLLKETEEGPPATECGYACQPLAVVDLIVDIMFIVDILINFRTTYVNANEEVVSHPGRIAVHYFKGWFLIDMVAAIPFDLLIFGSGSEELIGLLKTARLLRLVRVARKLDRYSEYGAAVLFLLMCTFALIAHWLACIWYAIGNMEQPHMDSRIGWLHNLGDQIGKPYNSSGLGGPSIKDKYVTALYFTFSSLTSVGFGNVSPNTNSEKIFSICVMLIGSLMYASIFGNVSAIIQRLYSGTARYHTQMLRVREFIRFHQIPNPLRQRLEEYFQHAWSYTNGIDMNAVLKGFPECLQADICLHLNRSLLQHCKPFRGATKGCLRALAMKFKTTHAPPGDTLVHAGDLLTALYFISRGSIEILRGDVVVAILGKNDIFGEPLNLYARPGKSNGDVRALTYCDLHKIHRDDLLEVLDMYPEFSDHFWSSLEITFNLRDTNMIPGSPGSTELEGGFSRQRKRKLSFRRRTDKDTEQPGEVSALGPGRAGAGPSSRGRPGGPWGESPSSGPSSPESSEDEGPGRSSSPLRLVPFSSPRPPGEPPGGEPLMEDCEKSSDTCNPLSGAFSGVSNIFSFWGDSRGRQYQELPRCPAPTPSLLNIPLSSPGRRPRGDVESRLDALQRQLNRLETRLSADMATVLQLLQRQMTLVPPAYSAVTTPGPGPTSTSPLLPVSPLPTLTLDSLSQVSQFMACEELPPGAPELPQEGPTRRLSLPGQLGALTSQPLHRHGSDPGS
Chain of 5-HT1A (P08908 whole entry, species assumed): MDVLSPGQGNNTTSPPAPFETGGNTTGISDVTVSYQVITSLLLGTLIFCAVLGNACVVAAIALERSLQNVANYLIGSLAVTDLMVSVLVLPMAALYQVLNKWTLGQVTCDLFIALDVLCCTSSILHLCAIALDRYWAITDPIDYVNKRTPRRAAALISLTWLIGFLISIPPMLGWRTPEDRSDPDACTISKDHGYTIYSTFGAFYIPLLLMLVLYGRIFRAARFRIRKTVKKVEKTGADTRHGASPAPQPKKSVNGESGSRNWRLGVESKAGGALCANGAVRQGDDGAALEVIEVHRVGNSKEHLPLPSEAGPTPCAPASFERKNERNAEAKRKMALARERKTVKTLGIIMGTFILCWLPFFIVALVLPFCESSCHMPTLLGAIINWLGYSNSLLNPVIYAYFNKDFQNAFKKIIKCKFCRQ
Chain of DAT (Q01959 whole entry, species assumed): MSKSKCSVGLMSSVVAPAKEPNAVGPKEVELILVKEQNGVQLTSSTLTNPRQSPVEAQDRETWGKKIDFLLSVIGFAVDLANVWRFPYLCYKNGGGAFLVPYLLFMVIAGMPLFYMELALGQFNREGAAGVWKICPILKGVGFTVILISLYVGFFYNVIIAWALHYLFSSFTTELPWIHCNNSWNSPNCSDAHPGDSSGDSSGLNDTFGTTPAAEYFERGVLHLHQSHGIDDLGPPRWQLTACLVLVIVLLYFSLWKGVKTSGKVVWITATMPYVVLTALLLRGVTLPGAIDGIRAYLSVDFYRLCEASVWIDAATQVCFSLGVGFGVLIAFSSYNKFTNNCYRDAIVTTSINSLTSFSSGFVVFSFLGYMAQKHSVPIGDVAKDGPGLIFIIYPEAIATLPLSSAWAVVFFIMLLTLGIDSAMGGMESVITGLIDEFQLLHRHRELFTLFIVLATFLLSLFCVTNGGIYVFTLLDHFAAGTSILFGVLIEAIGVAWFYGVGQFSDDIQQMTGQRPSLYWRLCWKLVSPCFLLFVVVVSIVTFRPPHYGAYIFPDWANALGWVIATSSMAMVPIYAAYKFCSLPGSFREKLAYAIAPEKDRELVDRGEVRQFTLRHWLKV
Chain of Sigma 1 (Q99720 whole entry): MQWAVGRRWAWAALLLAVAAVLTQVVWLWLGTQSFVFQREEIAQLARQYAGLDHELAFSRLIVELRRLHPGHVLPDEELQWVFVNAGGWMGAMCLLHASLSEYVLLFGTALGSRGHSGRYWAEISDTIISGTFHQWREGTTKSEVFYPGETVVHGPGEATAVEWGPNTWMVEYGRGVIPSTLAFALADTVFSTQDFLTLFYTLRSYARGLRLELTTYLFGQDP

| SMILES | % (10 μM) (5-HT1E) [%] | % (10 μM) (5-HT3) [%] | % (10 μM) (5-HT5A) [%] | % (10 μM) (AMPA) [%] | % (10 μM) (Alpha2C) [%] | % (10 μM) (Beta1) [%] | % (10 μM) (D2) [%] | % (10 μM) (DAT) [%] | % (10 μM) (H1) [%] | % (10 μM) (H4) [%] | % (10 μM) (KA) [%] | % (10 μM) (Sigma 1) [%] | % (10 μM) (5-HT1A) [%] | Ki (5-HT1A) [µM] | % (10 μM) (Alpha2A) [%] | % (10 μM) (HERG) [%] | % (10 μM) (M1) [%] | % (10 μM) (M3) [%] | Ki (M3) [µM] | % (10 μM) (M4) [%] | further results |
| --- | --- | --- | --- | --- | --- | --- | --- | --- | --- | --- | --- | --- | --- | --- | --- | --- | --- | --- | --- | --- | --- |
| O=C(O)c1ccccc1Nc1c(Cl)ccc(OCc2ccccc2)c1Cl [AK3-99B] | 11.82 | −7.63 | −5.77 | 21.14 | 17.28 | −13.11 | −6.96 | −17.73 | −4.62 | 8.29 | 13.56 | 3.95 | 50.00 | > 10 | 65.08 | −15.95 | 58.54 | 65.66 | > 10 | −3.01 | IC50 (CLC-1): > 250 µM; Ki (Alpha2A; secondary or functional assay): 3000 nM; Ki (M1; secondary or functional assay): > 10 µM; % (10 μM) (M5): 56.99%; Ki (M5): > 10 µM; % (10 μM) (mGluR5): 47.44%; Ki (mGluR5): > 10 µM; Ki (mGluR2): > 10 µM; Ki (mGluR4): > 10 µM; Ki (mGluR6): > 10 µM; Ki (mGluR8): > 10 µM; selectivity among CLC-1, CLC-2, CLC-Ka, CLC-Kb (CLC-2): selective for CLC-2 |
| O=C(O)c1cccnc1Nc1c(Cl)ccc(OCc2ccccc2)c1Cl [AK3-238] | 10.43 | 28.75 | 28.19 | 28.20 | 3.41 | 22.04 | 7.69 | 9.23 | 15.48 | 2.23 | 36.60 | 38.52 | 53.99 | > 10 | −2.55 | −43.87 | 11.29 | 54.64 | > 3 | 56.16 | off-target effects among panel of CNS receptors, channels, and transporters [1]: no off-target effects; % (10 μM) (A2A): −8.70%; % (10 μM) (V1A): 23.96%; % (10 μM) (V1B): 40.53%; Ki (HERG; secondary or functional assay): > 10 µM; Ki (M4; secondary or functional assay): > 5 µM; % (10 μM) (M5): 13.55%; Ki (M5): > 10 µM; % (10 μM) (mGluR5): 57.39%; Ki (mGluR5): > 10 µM |
